In publication PMC7044277 (Nature Communications, 2020):
Where “and” joins values, the source holds several entries; their conditions need not be identical. Identical values can stand only once.

Assays:
Type in all cases: cell-based
320 non-olfactory GPCRs [1] = biological target: T1, 320 non-olfactory GPCRs (Homo sapiens, UniProt Q16602)
T1 construct: expressed in transfected cells; host or cells: HTLA cells

320 non-olfactory GPCRs [2] = biological target: T2, 320 non-olfactory GPCRs (Homo sapiens, UniProt P43088); settings: receptor PTGFR; replicate values, Fig_4g
T2 construct: expressed in transfected cells; host or cells: HTLA cells

320 non-olfactory GPCRs [3] = biological target: T3, 320 non-olfactory GPCRs (Homo sapiens, UniProt Q99527)
T3 construct: expressed in transfected cells; host or cells: HTLA cells

320 non-olfactory GPCRs [4] = biological target: 320 non-olfactory GPCRs (Homo sapiens, UniProt P11229)
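Throughout, for Fold of Basal: compound tested at 1 µM final concentration.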
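Throughout, for GPCRome agonism screen response: fold over basal response of each receptor without drug.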

T1 sequence (Q16602 23-461): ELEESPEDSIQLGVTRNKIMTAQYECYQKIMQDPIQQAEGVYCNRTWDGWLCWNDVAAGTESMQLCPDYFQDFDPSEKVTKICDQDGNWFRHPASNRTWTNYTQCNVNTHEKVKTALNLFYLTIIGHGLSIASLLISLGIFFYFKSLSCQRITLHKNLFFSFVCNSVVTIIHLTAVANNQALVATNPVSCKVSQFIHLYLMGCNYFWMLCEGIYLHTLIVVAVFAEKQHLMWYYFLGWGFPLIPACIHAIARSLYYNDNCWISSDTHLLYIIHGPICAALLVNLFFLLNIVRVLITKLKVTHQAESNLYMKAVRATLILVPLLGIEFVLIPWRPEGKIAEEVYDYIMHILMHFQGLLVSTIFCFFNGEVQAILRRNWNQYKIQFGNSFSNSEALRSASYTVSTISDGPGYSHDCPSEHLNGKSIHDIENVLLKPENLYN
T2 sequence (P43088 whole entry): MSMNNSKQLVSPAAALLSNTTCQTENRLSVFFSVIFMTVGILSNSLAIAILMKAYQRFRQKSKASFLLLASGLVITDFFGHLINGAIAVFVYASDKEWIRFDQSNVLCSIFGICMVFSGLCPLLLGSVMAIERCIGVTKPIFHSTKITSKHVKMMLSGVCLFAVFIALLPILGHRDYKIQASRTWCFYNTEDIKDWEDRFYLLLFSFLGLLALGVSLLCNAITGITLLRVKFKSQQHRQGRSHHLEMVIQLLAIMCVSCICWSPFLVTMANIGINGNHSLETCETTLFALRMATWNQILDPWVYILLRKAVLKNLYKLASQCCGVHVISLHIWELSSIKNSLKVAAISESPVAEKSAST
T3 sequence (Q99527 whole entry): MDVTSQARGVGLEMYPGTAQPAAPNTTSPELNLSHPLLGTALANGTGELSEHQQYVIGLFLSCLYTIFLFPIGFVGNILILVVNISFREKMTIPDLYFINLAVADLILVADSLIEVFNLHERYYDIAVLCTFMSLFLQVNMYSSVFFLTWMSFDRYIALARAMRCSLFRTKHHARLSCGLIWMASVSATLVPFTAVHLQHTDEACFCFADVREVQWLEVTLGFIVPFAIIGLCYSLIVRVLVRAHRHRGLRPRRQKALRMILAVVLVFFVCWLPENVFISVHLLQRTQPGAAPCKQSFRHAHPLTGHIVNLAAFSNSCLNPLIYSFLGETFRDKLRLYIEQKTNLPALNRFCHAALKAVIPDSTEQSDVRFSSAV
Sequence of 320 non-olfactory GPCRs (Homo sapiens, UniProt P11229) (P11229 whole entry): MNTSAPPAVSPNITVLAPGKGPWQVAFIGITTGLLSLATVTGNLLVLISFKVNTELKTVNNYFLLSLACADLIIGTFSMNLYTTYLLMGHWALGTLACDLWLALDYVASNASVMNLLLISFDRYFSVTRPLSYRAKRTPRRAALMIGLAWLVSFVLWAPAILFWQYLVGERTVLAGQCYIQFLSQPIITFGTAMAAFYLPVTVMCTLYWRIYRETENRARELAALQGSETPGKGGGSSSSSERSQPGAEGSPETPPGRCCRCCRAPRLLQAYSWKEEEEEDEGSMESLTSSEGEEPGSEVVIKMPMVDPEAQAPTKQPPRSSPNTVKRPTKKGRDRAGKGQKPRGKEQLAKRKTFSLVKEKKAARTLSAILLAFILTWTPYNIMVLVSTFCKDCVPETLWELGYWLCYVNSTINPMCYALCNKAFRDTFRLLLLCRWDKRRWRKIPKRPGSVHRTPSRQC

## CCOc1cccc2cc(C(C)NCC3(O)CCCCC3)oc12 (stereo not shown) [O4LE6]
320 non-olfactory GPCRs [1]
  Fold of Basal: 0.7801 and 0.8303 and 0.6573 and 0.7619
320 non-olfactory GPCRs [2]
  GPCRome agonism screen response: 0.453 and 1.129 and 0.3537 and 0.6778
320 non-olfactory GPCRs [3]
  Fold of Basal: 0.9251 and 0.8387 and 0.6915 and 0.7823
320 non-olfactory GPCRs [4]
  Fold of Basal: 0.6962 and 0.7878 and 0.5081 and 0.6515
